# Target: T1, CCXCKR2 receptor (Homo sapiens, UniProt P25106)
# T1 construct: host or cells: MCF-7 (endogenous) and/or MDA-MB-435S transfected with hRDC1 in pcDNA3.1(+)
# Assay: Displacement of 125I-labeled SDF-1 from the CCXCKR2 receptor (radioligand binding, determination of IC50 values)
# Conditions: not given
# Summary of the method: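 Whole-cell filtration binding on MCF-7 and/or MDA-MB-435S cells stably transfected with human CCXCKR2, with compounds at multiple concentrations competing with 125I-SDF-1. Incubation was 3 hr at 4° C in HEPES buffer (CaCl2, MgCl2, 0.2% BSA, pH 7.1). Bound radioactivity was collected on PEI-treated GF/B filters and counted by scintillation to give IC50.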
# T1 sequence (P25106 whole entry): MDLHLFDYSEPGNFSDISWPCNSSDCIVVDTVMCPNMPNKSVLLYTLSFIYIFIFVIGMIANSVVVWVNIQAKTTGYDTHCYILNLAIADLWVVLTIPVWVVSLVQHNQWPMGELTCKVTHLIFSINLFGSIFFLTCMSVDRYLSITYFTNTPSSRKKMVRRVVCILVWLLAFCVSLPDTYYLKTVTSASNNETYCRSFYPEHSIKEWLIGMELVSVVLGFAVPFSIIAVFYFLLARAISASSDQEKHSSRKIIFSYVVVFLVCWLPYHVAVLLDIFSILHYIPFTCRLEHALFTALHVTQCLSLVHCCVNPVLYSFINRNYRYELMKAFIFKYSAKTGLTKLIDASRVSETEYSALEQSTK
row,Structure (SMILES),IC50 [nM]
1,COc1cc(C(=O)N(Cc2ccc3cccnc3n2)C[C@@H]2CCCN2C[C@H]2C[C@H]3CC[C@@H](C2)N3)cc2c1OC(C)(C)O2 [Example 41],< 500

# Same assay, conditions: MCF-7 and/or MDA-MB-435S cells expressing CCXCKR2; 125I SDF-1; 3 hr at 4° C.; read-out: Activity (ability to displace 125I SDF-1 from CCXCKR2)
row,IC50 [nM],Structure (SMILES)
1,< 500,"COc1cc(C(=O)N(Cc2cc3ccccc3cn2)C[C@@H]2CCCN2C2CCC2)cc2c1OC(C)(C)O2 [Example 62, 7-Methoxy-2,2-dimethyl-benzo[1,3]dioxole-5-carboxylic acid ((S)-1-cyclobutyl-pyrrolidin-2-ylmethyl)-isoquinolin-3-ylmethyl-amide]"
2,< 2000,"COc1cc(C(=O)N(Cc2cnc3ccccc3n2)C[C@@H]2CCCN2C2CCC2)cc2c1OC(C)(C)O2 [Example 67, 7-Methoxy-2,2-dimethyl-benzo[1,3]dioxole-5-carboxylic acid ((S)-1-cyclobutyl-pyrrolidin-2-ylmethyl)-quinoxalin-2-ylmethyl-amide]"
3,< 500,"COc1cc(C(=O)N(Cc2cc3ccccc3cn2)C[C@@H]2C[C@@H]3CCCC[C@@H]3N2)cc2c1OC(C)(C)O2 [Example 64, 7-Methoxy-2,2-dimethyl-benzo[1,3]dioxole-5-carboxylic acid isoquinolin-3-ylmethyl-[(2S,3aS,7aS)-1-(octahydro-indol-2-yl)methyl]-amide]"
4,< 500,"COc1cc(C(=O)N(CCC2CCCN2C)Cc2cc3ccccc3s2)cc(OC)c1OC (stereo not shown) [Example 8, N-Benzo[b]thiophen-2-ylmethyl-3,4,5-trimethoxy-N-[2-(1-methyl-pyrrolidin-2-yl)-ethyl]-benzamide]"
5,< 500,"COc1ccc(C(=O)N(C[C@@H]2CCCN2CC2CCCCC2)c2cccc(-c3ccccc3)c2)cc1OC [Example 24, N-biphenyl-3-yl-(S)—N-(1-cyclohexylmethyl-pyrrolidin-2-ylmethyl)-3,4-dimethoxy-benzamide]"
6,< 10000,COc1cc(C(=O)N(Cc2nc(-c3ccccn3)sc2Cl)C[C@@H]2CCCN2C2CCC2)cc2c1OC(C)(C)O2
